Source: patent US8563713B2, “Antibodies specific to carbamazepine” (priority 2011, dated 2013)

System: antibody specific to carbamazepine
Test: Interference from other drugs in the carbamazepine ELISA assay
Assay type: binding, rabbit
Conditions: chemical tested at 10.0 μg/ml; procedures of Example 4 (competitive ELISA); tested in duplicate
Experimental: Production of the antibodies of the present disclosure was performed with conventional methods. In brief, the immunogen as prepared in Example 2 was diluted to 1.0 mg/ml in phosphate buffered saline (PBS). 1.0 ml of the immunogen solution was injected into rabbits with complete Freunds adjuvant. After 2-3 weeks, the animal was injected with 1.0 ml of the same immunogen solution with incomplete Freunds adjuvant. The same injection was repeated every other week until acceptable titer was obtained.
The Carbamazepine ELISA was developed with the antibody generated from Example 3. This assay is a competitive micro-immunoassay for determination of carbamazepine in a fluid sample. Carbamazepine in the fluid sample and carbamazepine derivative linked with the enzyme (HRP)-conjugate compete for the finite sites of the antibody coated on the solid surface of the microwell. If little or no carbamazepine is present in the fluid sample, more enzyme labeled carbamazepine derivative will bind to the antibody on the solid surface. Conversely, if a large or a significant amount of carbamazepine is present in the fluid sample, less enzyme labeled carbamazepine derivative will bind to the antibody, producing less color signal. The absorbance produced is inversely proportional to the amount of carbamazepine in the fluid sample.
Interference from other drugs was tested using 30 frequently used chemicals and medicines, at concentrations of 10.0 μg/ml.
The samples were tested in duplicate, following the procedures used in Example 4. All 30 samples produced a negative test result. Thus, the immunoassay of the present disclosure is specific to carbamazepine.

CCN(CC)CCOC(=O)c1ccc(N)cc1 [Procaine]
Equivalent Carbamazepine Conc.: <0.1 µg/mL

CN[C@@H](C)Cc1ccccc1 [d-Methamphetamine]
Equivalent Carbamazepine Conc.: <0.1 µg/mL

CN(C)CCCN1c2ccccc2CCc2ccccc21 [Imipramine]
Equivalent Carbamazepine Conc.: <0.1 µg/mL

CN[C@@H](C)[C@H](O)c1ccccc1 [(L)-Ephedrine]
Equivalent Carbamazepine Conc.: <0.1 µg/mL

O=C(O)c1cc(O)ccc1O [Gentisic Acid]
Equivalent Carbamazepine Conc.: <0.1 µg/mL

CN1C(=O)CN=C(c2ccccc2)c2cc(Cl)ccc21 [Diazepam]
Equivalent Carbamazepine Conc.: <0.1 µg/mL

CC1(C)S[C@@H]2[C@H](NC(=O)[C@H](N)c3ccccc3)C(=O)N2[C@H]1C(=O)O [Ampicillin]
Equivalent Carbamazepine Conc.: <0.1 µg/mL

CC(C)Cc1ccc(C(C)C(=O)O)cc1 (centres unmarked) [Ibuprofen]
Equivalent Carbamazepine Conc.: <0.1 µg/mL

CCN(CC)CC(=O)Nc1c(C)cccc1C [Lidocaine]
Equivalent Carbamazepine Conc.: <0.1 µg/mL

C=C[C@H]1C[N@@]2CC[C@H]1C[C@@H]2[C@@H](O)c1ccnc2ccc(OC)cc12 [Quinidine]
Equivalent Carbamazepine Conc.: <0.1 µg/mL

CN(C)CCCN1c2ccccc2Sc2ccc(Cl)cc21 [Chlorpromazine]
Equivalent Carbamazepine Conc.: <0.1 µg/mL

CN1C(=O)CC[C@H]1c1cccnc1 [(−)-Cotinine]
Equivalent Carbamazepine Conc.: <0.1 µg/mL

Cc1cc(CC(=O)O)n(C)c1C(=O)c1ccc(Cl)cc1 [Zomepirac]
Equivalent Carbamazepine Conc.: <0.1 µg/mL

CCN(CC)CCNC(=O)c1ccc(N)cc1 [Procainamide]
Equivalent Carbamazepine Conc.: <0.1 µg/mL

COc1ccc2c3c1O[C@H]1C(=O)CC[C@H]4[C@@H](C2)N(C)CC[C@]314 [Hydrocodone]
Equivalent Carbamazepine Conc.: <0.1 µg/mL

Ecgonine
Equivalent Carbamazepine Conc.: <0.1 µg/mL

O=C(O)C1N=C(c2ccccc2)c2cc(Cl)ccc2NC1=O (centres unmarked) [Clorazepate]
Equivalent Carbamazepine Conc.: <0.1 µg/mL

CC(N)C(O)c1ccccc1 (centres unmarked) [Phenylpropanolamine]
Equivalent Carbamazepine Conc.: <0.1 µg/mL

NC(=O)c1cccnc1 [Niacinamide]
Equivalent Carbamazepine Conc.: <0.1 µg/mL

CC(C(=O)O)c1cccc(Oc2ccccc2)c1 (centres unmarked) [Fenoprofen]
Equivalent Carbamazepine Conc.: <0.1 µg/mL

CC(=O)Oc1ccccc1C(=O)O [Acetylsalicylic Acid]
Equivalent Carbamazepine Conc.: <0.1 µg/mL

Cn1c(=O)c2c(ncn2C)n(C)c1=O [Caffeine]
Equivalent Carbamazepine Conc.: <0.1 µg/mL

Penicillin
Equivalent Carbamazepine Conc.: <0.1 µg/mL

NCCc1ccccc1 [beta-Phenylethylamine]
Equivalent Carbamazepine Conc.: <0.1 µg/mL

CNC[C@H](O)c1cccc(O)c1 [Phenylephrine]
Equivalent Carbamazepine Conc.: <0.1 µg/mL

CCC1(CCC(C)C)C(=O)NC(=O)NC1=O [Amobarbital]
Equivalent Carbamazepine Conc.: <0.1 µg/mL

Cc1ccc(C)c(OCCCC(C)(C)C(=O)O)c1 [Gemfibrozil]
Equivalent Carbamazepine Conc.: <0.1 µg/mL

COC(=O)[C@@H]1[C@H]2CC[C@@H](C[C@@H]1O)N2C [Ecgonine Methyl Ester]
Equivalent Carbamazepine Conc.: <0.1 µg/mL

COc1ccc2cc([C@H](C)C(=O)O)ccc2c1 [Naproxen]
Equivalent Carbamazepine Conc.: <0.1 µg/mL
